Assay results reported in patent US4598077A, “Amidine derivatives and cardiotonic compositions” (Torii & Co. Ltd., priority 1983, dated 1986).
Structures can show the parent of a compound that is named as a salt. Where two headings read alike, the source gives them in different places.

What was measured:
[1] = tested on: papillary muscle preparation; assay: Isolated, blood-perfused papillary muscle preparation, developed tension (Table 1); parameters: species or system Mongrel dogs; details: Canis lupus familiaris, close-arterial injection, read-out: Papillary muscle preparation, % increase in developed tension; for activation at 0.03 mg: dose 30 μg; for activation at 0.1 mg: dose 100 μg; for activation at 0.3 mg: dose 300 μg
Method: Mongrel dogs of either sex weighting 7.5-10 kg were anesthetized with sodium pentobarbital (30 mg/kg, i.v.). Each animal was given an intravenous dose of sodium heparin (500 units/kg), thereafter, the heart was removed and placed in cold Tyrode solution. The isolated and cross-circulated right atrium and papillary muscle preparations were arranged for perfusion from a donor dog as follows. The donor dog was also anesthetized with sodium pentobarbital (30 mg/kg, i.v.); heparin (500 units/kg) was given intravenously immediately before the perfusion began. (a) The isolated, blood-perfused papillary muscle preparation. The anterior septal artery was dissected and cannulated with polyethylene tubing. The tendinous end of the papillary muscle was connected to a strain-gauge transducer by a fine silk thread and the muscles were under about 2 g of resting tension. The papillary muscle preparation was electrically driven at a constant frequency of 120/min with rectangular pulses of 1-3 V and 5 msec duration. The preparation of the blood-perfused papillary muscle has been described in detail by Endoh and Hashimoto Am. J. Physiol, 218, 1459-1463 (1970). Each preparation was perfused with the arterial blood from the carotid artery of the donor dog at a constant perfusion pressure of 100 mmHg by means of a peristaltic pump. The venous effluent from the preparations was collected in a reservoir and returned to the donor dog through the jugular vein. Test compounds used in these experiments were dissolved in vehicle solution and were injected closearterially to the preparations. The effects of each compound on the developed tension and sinuo rate were evaluated as a percentage change in values determined before and after administration of the compound. In Table 1 are shown such changes in terms of the percentage increase after administration.

right atrium preparation = assay: Isolated, blood-perfused right atrium preparation, sinus rate (Table 1); parameters: species or system Mongrel dogs; details: Canis lupus familiaris, close-arterial injection, read-out: Right atrium preparation; for activation at 0.03 mg: dose 30 μg; for activation at 0.03 mg / activation at 0.1 mg / activation at 0.3 mg: % increase in sinus rate; for activation at 0.3 mg: dose 300 μg
Method: Mongrel dogs of either sex weighting 7.5-10 kg were anesthetized with sodium pentobarbital (30 mg/kg, i.v.). Each animal was given an intravenous dose of sodium heparin (500 units/kg), thereafter, the heart was removed and placed in cold Tyrode solution. The isolated and cross-circulated right atrium and papillary muscle preparations were arranged for perfusion from a donor dog as follows. The donor dog was also anesthetized with sodium pentobarbital (30 mg/kg, i.v.); heparin (500 units/kg) was given intravenously immediately before the perfusion began. (b) The isolated, blood-perfused right atrium preparation. The sinus node artery was cannulated at its origin in the right coronary artery. A right atrial electrogram was obtained from bipolar electrodes which were placed in close proximity to the sinoatrial node. The sinus rate was recorded by a cardiotachometer triggered by the right atrial electrogram. The details of the bloodperfused right atrium preparation have been described by Chiba et al. (Tohoku J. exp. Med., 107, 101-102 (1972) and Kubota and Hashimoto (Naunyn-Schmiedeberg's Arch. Pharmacol., 278, 135-150 (1973)). Each preparation was perfused with the arterial blood from the carotid artery of the donor dog at a constant perfusion pressure of 100 mmHg by means of a peristaltic pump. The venous effluent from the preparations was collected in a reservoir and returned to the donor dog through the jugular vein. Test compounds used in these experiments were dissolved in vehicle solution and were injected closearterially to the preparations. The effects of each compound on the developed tension and sinuo rate were evaluated as a percentage change in values determined before and after administration of the compound. In Table 1 are shown such changes in terms of the percentage increase after administration.

[2] = tested on: anesthetized open-chest dogs; assay: Cardiovascular effect in anesthetized open-chest dogs (Table 2); assay type: in vivo, Mongrel dogs; details: femoral vein; for change in vivo at 0.1 mg/kg / change in vivo at 0.3 mg/kg / change in vivo at 0.03 mg/kg: Canis lupus familiaris, iv
Method: Mongrel dogs of either sex weighing 9-15 kg were anesthetized with sodium pentobarbital (30 mg/kg, i.v.). The heart was exposed by thoractomy by the left fifth intercostal incision under artificial respiration. Aortic flow was measured by the probe of electromagnetic flowmeter placed around the ascending aorta. Myocardial contractility was measured by the maximal rate of rise of left ventricular pressure which was recorded from a needle inserted into the ventricular cavity. The systemic blood pressure was measured with a pressure transducer by means of a polyethylene cannular inserted into the femoral artery. The heart rate was recorded by a cardiotrachometer triggered by R wave of electrocargiogram (Lead II). Test compounds were dissolved in vehicle solution and were injected into the femoral vein. The effects of each compound on the cardiac contractility and aortic flow were evaluated as a percentage change in values determined before and after administration of the compound. In Table 2 are shown such changes in terms of the percentage increase after administration.

[3] = read-out: Increase in aortic flow (%)
[4] = read-out: Increase in cardiac contractility (%)
[5] = 0.3 mg/kg, read-out: Increase in aortic flow (%)
[6] = 0.3 mg/kg, read-out: Increase in cardiac contractility (%)
[7] = 0.03 mg/kg, read-out: Increase in aortic flow (%)
[8] = 0.03 mg/kg, read-out: Increase in cardiac contractility (%)

**Q.** What does the source list for NCc1ccc(CCc2ccc(C3=NCCN3)cc2)cc1 [Compound 15, 2-{4-[2-(4-Aminomethylphenyl)ethyl]phenyl}imidazoline dihydrochloride]?
**A.** activation at 0.03 mg [1]: 49.2%; activation at 0.1 mg [1]: 100%; activation at 0.03 mg (right atrium preparation): 22.8%; activation at 0.1 mg (right atrium preparation; dose 100 μg): 34.7%; change in vivo at 0.1 mg/kg [2, 3]: 5.9%; change in vivo at 0.1 mg/kg [2, 4]: 25%; change in vivo at 0.3 mg/kg [2, 5]: 10%; change in vivo at 0.3 mg/kg [2, 6]: 56.5%

**Q.** With CNC(=N)c1ccc(CCc2ccc(CN)cc2[N+](=O)[O-])cc1 [Compound 13, N-Methyl-4-[2-(4-aminomethyl-2-nitrophenyl)ethyl]benzamidine dihydrochloride] as the compound, how does the activation at 0.03 mg [1] read?
**A.** 64.2%

**Q.** And the activation at 0.1 mg [1]?
**A.** 95.5%

**Q.** And the activation at 0.03 mg (right atrium preparation)?
**A.** 32.3%

**Q.** And the activation at 0.1 mg (right atrium preparation; dose 100 μg)?
**A.** 35.9%

**Q.** What about the change in vivo at 0.03 mg/kg [2, 7] of the same compound?
**A.** 5.7%

**Q.** And the change in vivo at 0.03 mg/kg [2, 8]?
**A.** 29%

**Q.** And the change in vivo at 0.1 mg/kg [2, 3]?
**A.** 12.1%

**Q.** And the change in vivo at 0.1 mg/kg [2, 4]?
**A.** 66.7%

**Q.** CNC(=N)c1ccc(CCc2ccc(CN)cc2)cc1 [Compound 1, 4-[2-(4-aminomethylphenyl)ethyl]-N-methylbenzamidine dihydrochloride] was tested. Which activation at 0.03 mg [1] did it give?
**A.** 44.1%

**Q.** What about the activation at 0.1 mg [1] of the same compound?
**A.** 78.1%

**Q.** And the activation at 0.03 mg (right atrium preparation)?
**A.** 26.2%

**Q.** What about the activation at 0.1 mg (right atrium preparation; dose 100 μg) of the same compound?
**A.** 34.1%

**Q.** And the change in vivo at 0.1 mg/kg [2, 3]?
**A.** 30.4%

**Q.** And the change in vivo at 0.1 mg/kg [2, 4]?
**A.** 42.1%

**Q.** And the change in vivo at 0.3 mg/kg [2, 5]?
**A.** 38.8%

**Q.** And the change in vivo at 0.3 mg/kg [2, 6]?
**A.** 57.5%

**Q.** How did the activation at 0.1 mg [1] turn out when CNC(=N)c1ccc(OCc2ccc(CN)cc2)cc1 [Compound 10, 4-(4-Aminomethylbenzyloxy)-N-methylbenzamidine dihydrochloride] was run?
**A.** 27.9%

**Q.** What about the activation at 0.3 mg [1] of the same compound?
**A.** 54.4%

**Q.** And the activation at 0.1 mg (right atrium preparation; dose 100 μg)?
**A.** 11.6%

**Q.** What about the activation at 0.3 mg (right atrium preparation) of the same compound?
**A.** 17.9%

**Q.** And the change in vivo at 0.3 mg/kg [2, 5]?
**A.** 2.5%

**Q.** And the change in vivo at 0.3 mg/kg [2, 6]?
**A.** 8.7%

**Q.** How did the activation at 0.1 mg [1] turn out when CNC(=N)c1ccc(C=Cc2ccc(CN)cc2)cc1 [Compound 7, 4-[2-(4-aminomethylphenyl)ethenyl]-N-methylbenzamidine dihydrochloride] was run?
**A.** 44.7%

**Q.** What about the activation at 0.3 mg [1] of the same compound?
**A.** 66%

**Q.** And the activation at 0.1 mg (right atrium preparation; dose 100 μg)?
**A.** 8.3%

**Q.** What about the activation at 0.3 mg (right atrium preparation) of the same compound?
**A.** 28.2%

**Q.** And the change in vivo at 0.1 mg/kg [2, 3]?
**A.** 4.2%

**Q.** What about the change in vivo at 0.1 mg/kg [2, 4] of the same compound?
**A.** 3.1%

**Q.** What about the change in vivo at 0.3 mg/kg [2, 5] of the same compound?
**A.** 13.8%

**Q.** What about the change in vivo at 0.3 mg/kg [2, 6] of the same compound?
**A.** 16.7%

**Q.** Which activation at 0.03 mg [1] does the source give for CCCCNC(=N)c1ccc(CCc2ccc(CN)cc2)cc1.Cl.Cl [Compound 4, 4-[2-(4-Aminomethylphenyl)ethyl]-N-n-butyl-benzamidine dihydrochloride] here?
**A.** 45.8%

**Q.** What about the activation at 0.1 mg [1] of the same compound?
**A.** 76.5%

**Q.** What about the activation at 0.03 mg (right atrium preparation) of the same compound?
**A.** 19%

**Q.** What about the activation at 0.1 mg (right atrium preparation; dose 100 μg) of the same compound?
**A.** 30.6%

**Q.** And the “% decrease in cardiac contractility (in parentheses)” value ([2]; 0.3 mg/kg)?
**A.** -3.4%

**Q.** And the change in vivo at 0.1 mg/kg [2, 3]?
**A.** 20%

**Q.** And the change in vivo at 0.1 mg/kg [2, 4]?
**A.** 26.1%

**Q.** What about the change in vivo at 0.3 mg/kg [2, 5] of the same compound?
**A.** 50%

**Q.** And the change in vivo at 0.3 mg/kg [2, 6]?
**A.** 52.9%

**Q.** Which activation at 0.1 mg [1] does the source give for CN=C(NC)c1ccc(CCc2ccc(CN)cc2[N+](=O)[O-])cc1.Cl.Cl [Compound 18, 4-[2-(4-Aminomethyl-2-nitrophenyl)ethyl]-N,N'-dimethylbenzamidine dihydrochloride] here?
**A.** 64%

**Q.** What about the activation at 0.3 mg [1] of the same compound?
**A.** 86.5%

**Q.** And the inhibition at 0.1 mg (right atrium preparation; dose 100 μg, % decrease in sinus rate (in parentheses))?
**A.** 1.8%

**Q.** What about the activation at 0.1 mg (right atrium preparation; dose 100 μg) of the same compound?
**A.** 14%

**Q.** And the activation at 0.3 mg (right atrium preparation)?
**A.** 34.8%

**Q.** What about the “% decrease in aortic flow (in parentheses)” value ([2]; 0.3 mg/kg) of the same compound?
**A.** -5.3%

**Q.** What about the change in vivo at 0.1 mg/kg [2, 3] of the same compound?
**A.** 14.3%

**Q.** What about the change in vivo at 0.1 mg/kg [2, 4] of the same compound?
**A.** 59.3%

**Q.** What about the change in vivo at 0.3 mg/kg [2, 5] of the same compound?
**A.** 23.7%

**Q.** And the change in vivo at 0.3 mg/kg [2, 6]?
**A.** 155%

**Q.** For COc1cc(CN)ccc1CCc1ccc(C2=NCCN2)cc1 [Compound 20, 2-{4-[2-(4-Aminomethyl-2-methoxyphenyl)ethyl]phenyl}imidazoline dihydrochloride], which activation at 0.1 mg [1] is on record?
**A.** 72.2%

**Q.** What about the activation at 0.3 mg [1] of the same compound?
**A.** 104%

**Q.** And the activation at 0.1 mg (right atrium preparation; dose 100 μg)?
**A.** 26.8%

**Q.** What about the activation at 0.3 mg (right atrium preparation) of the same compound?
**A.** 45.7%

**Q.** And the “% decrease in aortic flow (in parentheses)” value ([2]; 0.03 mg/kg)?
**A.** -1.1%

**Q.** What about the “% decrease in cardiac contractility (in parentheses)” value ([2]; 0.03 mg/kg) of the same compound?
**A.** -7.8%

**Q.** What about the change in vivo at 0.03 mg/kg [2, 7] of the same compound?
**A.** 7.9%

**Q.** What about the change in vivo at 0.03 mg/kg [2, 8] of the same compound?
**A.** 78.6%
